In patent US10280166B2, “2-(1H-indazol-3-yl)-3H-imidazo[4,5-B]pyridine and therapeutic uses thereof” (Samumed, LLC, priority 2014, dated 2019):

Experiments:
[1] = tested on: primary human fibroblasts derived from IPF patients (LL29 cells); assay: Inhibition of fibrosis (αSMA) in TGF-β1 treated primary human fibroblasts from IPF patients; assay type: cell-based; settings: Fibroblast, 96 h, TGF-β1 20 ng/mL, 4 days, % αSMA positive cells
Description: The above synthesized compounds were screened using primary human fibroblasts (derived from IPF patients) treated with TGF-β1 to determine their ability to inhibit the fibrotic process.
Primary human fibroblasts derived from IPF patients (LL29 cells) [^1Xiaoqiu Liu, et.al., “Fibrotic Lung Fibroblasts Show Blunted Inhibition by cAMP Due to Deficient cAMP Response Element-Binding Protein Phosphorylation”, Journal of Pharmacology and Experimental Therapeutics (2005), 315(2), 678-687; ^2Watts, K. L., et.al., “RhoA signaling modulates cyclin D1 expression in human lung fibroblasts; implications for idiopathic pulmonary fibrosis”, Respiratory Research (2006), 7(1), 88] were obtained from American Type Culture Collection (ATCC) and expanded in F12 medium supplemented with 15% Fetal Bovine Serum and Penicillin/Streptomycin.
Each compound was dissolved in DMSO as a 10 mM stock and used to prepare compound source plates. Serial dilution (1:2, 11-point dose-response curves from 10 μM to 1.87 nM) and compound transfer was performed using the ECHO 550 (Labcyte, Sunnyvale, Calif.) into 384-well clear bottom assay plates (Greiner Bio-One) with appropriate DMSO backfill for a final DMSO concentration of 0.1%. LL29 cells were plated at 1,500 cells/well in 80 μl/well F12 medium supplemented with 1% Fetal Bovine Serum. One hour after addition of the cells, TGF-β1 (Peprotech; 20 ng/mL) was added to the plates to induce fibrosis (ref. 1 and 2 above). Wells treated with TGF-β1 and containing DMSO were used as controls. Cells were incubated at 37° C. and 5% CO2 for 4 days. Following incubation for 4 days, SYTOX green nucleic acid stain (Life Technologies [Thermo Fisher Scientific]) was added to the wells at a final concentration of 1 uM and incubated at room temperature for 30 min. Cells were then fixed using 4% formaldehyde (Electron Microscopy Sciences), washed 3 times with PBS followed by blocking and permeabilization using 3% Bovine Serum Albumin (BSA; Sigma) and 0.3% Triton X-100 (Sigma) in PBS. Cells were then stained with antibody specific to α-smooth muscle actin (αSMA; Abcam) (ref. 1 and 2 above) in 3% Bovine Serum Albumin (BSA; Sigma) and 0.3% Triton X-100 (Sigma) in PBS, and incubated overnight at 4° C. Cells were then washed 3 times with PBS, followed by incubation with Alexa Flor-647 conjugated secondary antibody (Life Technologies [Thermo Fisher Scientific]) and DAPI at room temperature for 1 hour. Cells were then washed 3 times with PBS and plates were sealed for imaging. αSMA staining was imaged by excitation at 630 nm and emission at 665 nm and quantified using the Compartmental Analysis program on the CellInsight CX5 (Thermo Scientific). Dead or apoptotic cells were excluded from analysis based on positive SYTOX green staining. % of total cells positive for αSMA were counted in each well and normalized to the average of 11 wells treated with TGF-β1 on the same plate using Dotmatics' Studies Software. The normalized averages (fold change over untreated) of 3 replicate wells for each compound concentration were used to create dose-responses curves and EC50 values were calculated using non-linear regression curve fit in the Dotmatics' Studies Software. The EC50 values are reported.

[2] = tested on: Wnt activity (SW480 colon carcinoma cells stably expressing the Sp5-Luc reporter gene); assay: Sp5-Luc reporter gene screening assay for Wnt activity in SW480 cells; assay type: cell-based; settings: Homo sapiens, 42 h incubation, luminescence
Description: The screening assay for Wnt activity is described as follows. Reporter cell lines can be generated by stably transducing cancer cell lines (e.g., colon cancer) or primary cells (e.g., IEC-6 intestinal cells) with a lentiviral construct that includes a Wnt-responsive promoter driving expression of the firefly luciferase gene.
SW480 colon carcinoma cells were transduced with a lentiviral vector expressing luciferase with a human Sp5 promoter consisting of a sequence of eight TCF/LEF binding sites. SW480 cells stably expressing the Sp5-Luc reporter gene and a hygromycin resistance gene were selected by treatment with 150 μg/ml of hygromycin for 7 days. These stably transduced SW480 cells were expanded in cell culture and used for all further screening activities. For Sp5-Luc reporter gene assays, the cells were plated at 10,000 cells/well in 96-well plates with growth medium containing 10% fetal calf serum and incubated overnight at 37° C. and 5% CO2. Each compound was dissolved in DMSO as a 10 mM stock in standard j-vials and used to prepare compound source plates in dose-response format with 3-fold serial dilutions and a 10 mM top concentration. Compound transfer from serially diluted source plates to assay plates containing the cells was accomplished using a pintool (Multimek 96, Beckman equipped with V&P Scientific FP1S50H pins) based liquid handling protocol. This protocol used a slotted pin to transfer 50 nl of compound from a source plate well to an assay plate well containing 50 μl of cells in growth medium. […] Control wells received 50 nl of DMSO treatment for normalization and calculating IC50 values. The treated cells were incubated at 37° C. and 5% CO2 for an additional forty-two hours. Following incubation, the growth medium was removed and 50 μl of BrightGlo luminescence reagent (Promega) was added to each well of the 96-well assay plates. The plates were placed on an orbital shaker for 5 min and then luminescence was quantified on the Victor3 (Perkin Elmer) plate reader. Readings were normalized to DMSO only treated cells, and normalized activities were utilized for IC50 calculations using the dose-response log (inhibitor) vs. response—variable slope (four parameters) nonlinear regression feature available in GraphPad Prism 5.0 or 6.0.

Row | SMILES | EC50 [1] | IC50 [2]
1 | CC(C)C(=O)Nc1cncc(-c2ccc3[nH]nc(-c4nc5c(-c6cccc(F)c6)ccnc5[nH]4)c3c2)c1 [Compound 9] | 9.99 nM | 3 nM
2 | CN(C)Cc1cncc(-c2ccc3[nH]nc(-c4nc5c(-c6cccc(F)c6)ccnc5[nH]4)c3c2)c1 [Compound 13, 1-(5-(3-(7-(3 -Fluorophenyl)-3H-imidazo[4,5-b]pyridin-2-yl)-1H-indazol-5-yl)pyridin-3-yl)-N,N-dimethylmethanamine] | 1.15 nM | 116 nM
3 | O=C(Nc1cncc(-c2ccc3[nH]nc(-c4nc5c(-c6cccc(F)c6)ccnc5[nH]4)c3c2)c1)C1CC1 [Compound 19, N-(5-(3-(7-(3-Fluorophenyl)-3H-imidazo[4,5-b]pyridin-2-yl)-1H-indazol-5-yl)pyridin-3-yl)cyclopropanecarboxamide] | 0.043 nM | 1 nM
4 | O=C(Nc1cncc(-c2ccc3[nH]nc(-c4nc5c(-c6cccc(F)c6)ccnc5[nH]4)c3c2)c1)C1CCCC1 [Compound 21, N-(5-(3-(7-(3-Fluorophenyl)-3H-imidazo[4,5-b]pyridin-2-yl)-1H-indazol-5-yl)pyridin-3-yl)cyclopentanecarboxamide] | 0.027 nM | 9.1 nM
5 | CC(C)(C)C(=O)Nc1cncc(-c2ccc3[nH]nc(-c4nc5c(-c6ccc(F)cc6)ccnc5[nH]4)c3c2)c1 [Compound 34, N-(5-(3-(7-(4-Fluorophenyl)-3H-imidazo[4,5-b]pyridin-2-yl)-1H-indazol-5-yl)pyridin-3-yl)pivalamide] | 0.334 nM | 19 nM
6 | Fc1ccc(-c2ccnc3[nH]c(-c4n[nH]c5ccc(-c6cncc(CN7CCCC7)c6)cc45)nc23)cc1 [Compound 40, 7-(4-Fluorophenyl)-2-(5-(5-(pyrrolidin-1-ylmethyl)pyridin-3-yl)-1H-indazol-3-yl)-3H-imidazo[4,5-b]pyridine] | 0.009 nM | 4030 nM
7 | O=C(Nc1cncc(-c2ccc3[nH]nc(-c4nc5c(-c6ccc(F)cc6)ccnc5[nH]4)c3c2)c1)C1CCC1 [Compound 46, N-(5-(3-(7-(4-Fluorophenyl)-3H-imidazo[4,5-b]pyridin-2-yl)-1H-indazol-5-yl)pyridin-3-yl)cyclobutanecarboxamide] | 0.08 nM | 2 nM
8 | Fc1ccc(-c2ccnc3[nH]c(-c4n[nH]c5ccc(-c6cncnc6)cc45)nc23)cc1 [Compound 52, 7-(4-Fluorophenyl)-2-(5-(pyrimidin-5-yl)-1H-indazol-3-yl)-3H-imidazo[4,5-b]pyridine] | 1.25 nM | 25.6 nM
9 | CN(C)c1cncc(-c2ccc3[nH]nc(-c4nc5c(-c6ccccc6F)ccnc5[nH]4)c3c2)c1 [Compound 59, 5-(3-(7-(2-Fluorophenyl)-3H-imidazo[4,5-b]pyridin-2-yl)-1H-indazol-5-yl)-N,N-dimethylpyridin-3-amine] | 0.009 nM | 31.9 nM
10 | CC(C)C(=O)Nc1cncc(-c2ccc3[nH]nc(-c4nc5c(-c6ccccc6F)ccnc5[nH]4)c3c2)c1 [Compound 61, N-(5-(3-(7-(2-Fluorophenyl)-3H-imidazo[4,5-b]pyridin-2-yl)-1H-indazol-5-yl)pyridin-3-yl)isobutyramide] | 0.009 nM | 6 nM
11 | O=C(Nc1cncc(-c2ccc3[nH]nc(-c4nc5c(-c6ccccc6F)ccnc5[nH]4)c3c2)c1)C1CC1 [Compound 71, N-(5-(3-(7-(2-Fluorophenyl)-3H-imidazo[4,5-b]pyridin-2-yl)-1H-indazol-5-yl)pyridin-3-yl)cyclopropanecarboxamide] | 9.99 nM | 11.1 nM
12 | O=C(Nc1cncc(-c2ccc3[nH]nc(-c4nc5c(-c6ccccc6F)ccnc5[nH]4)c3c2)c1)C1CCCC1 [Compound 73, N-(5-(3-(7-(2-Fluorophenyl)-3H-imidazo[4,5-b]pyridin-2-yl)-1H-indazol-5-yl)pyridin-3-yl)cyclopentanecarboxamide] | 0.379 nM | 13 nM
13 | Nc1cncc(-c2ccc3[nH]nc(-c4nc5c(-c6cccnc6)ccnc5[nH]4)c3c2)c1 [Compound 81, 5-(3-(7-(Pyridin-3-yl)-3H-imidazo[4,5-b]pyridin-2-yl)-1H-indazol-5-yl)pyridin-3-amine] | 0.009 nM | 5.8 nM
14 | CC(C)Nc1cncc(-c2ccc3[nH]nc(-c4nc5c(-c6cccnc6)ccnc5[nH]4)c3c2)c1 [Compound 90, N-isopropyl-5-(3-(7-(pyridin-3-yl)-3H-imidazo[4,5-b]pyridin-2-yl)-1H-indazol-5-yl)pyridin-3-amine] | 0.078 nM | 12 nM
15 | c1cncc(-c2ccnc3[nH]c(-c4n[nH]c5ccc(-c6cncc(CN7CCCCC7)c6)cc45)nc23)c1 [Compound 93, 2-(5-(5-(Piperidin-1-ylmethyl)pyridin-3-yl)-1H-indazol-3-yl)-7-(pyridin-3-yl)-3H-imidazo[4,5-b]pyridine] | 0.016 nM | > 10000 nM
16 | c1ccc(CNCc2cncc(-c3ccc4[nH]nc(-c5nc6c(-c7cccnc7)ccnc6[nH]5)c4c3)c2)cc1 [Compound 101, N-Benzyl-1-(5-(3-(7-(pyridin-3-yl)-3H-imidazo[4,5-b]pyridin-2-yl)-1H-indazol-5-yl)pyridin-3-yl)methanamine] | 0.235 nM | > 10000 nM
17 | CCNCc1cncc(-c2ccc3[nH]nc(-c4nc5c(-c6ccccn6)ccnc5[nH]4)c3c2)c1 [Compound 136, N-((5-(3-(7-(Pyridin-2-yl)-3H-imidazo[4,5-b]pyridin-2-yl)-1H-indazol-5-yl)pyridin-3-yl)methyl)ethanamine] | 1.77 nM | 1550 nM
18 | O=C(Nc1cncc(-c2ccc3[nH]nc(-c4nc5c(-c6ccccn6)ccnc5[nH]4)c3c2)c1)c1ccccc1 [Compound 141, N-(5-(3-(7-(Pyridin-2-yl)-3H-imidazo[4,5-b]pyridin-2-yl)-1H-indazol-5-yl)pyridin-3-yl)benzamide] | 9.99 nM | 13.7 nM
19 | O=C(Nc1cncc(-c2ccc3[nH]nc(-c4nc5c(-c6ccccn6)ccnc5[nH]4)c3c2)c1)C1CCC1 [Compound 150, N-(5-(3-(7-(Pyridin-2-yl)-3H-imidazo[4,5-b]pyridin-2-yl)-1H-indazol-5-yl)pyridin-3-yl)cyclobutanecarboxamide] | 0.133 nM | 15 nM
20 | c1ccc(-c2ccnc3[nH]c(-c4n[nH]c5ccc(-c6cncc(CNCC7CCCC7)c6)cc45)nc23)nc1 [Compound 154, 1-Cyclopentyl-N-((5-(3-(7-(pyridin-2-yl)-3H-imidazo[4,5-b]pyridin-2-yl)-1H-indazol-5-yl)pyridin-3-yl)methyl)methanamine] | 9.99 nM | 1460 nM
